# Tests used:
# Assay type in all cases: physicochemical
# [1] = Vitamin content of solution (C) in polyolefin holders after autoclaving and storage at 40° C. for four months, measured through HPLC (Example 3)
# Experimental: Solution (C) (4 ml) prepared in Example 1 was charged into each of holders made of the materials shown in Table 3, to thereby obtain a holder which contains a solution of vitamin D3. Each of these holders containing a solution of vitamin D3 was subjected to autoclaving and wrapped in a nylon multi-layered-film bag together with a deoxidizing agent (trade name: Ageless, product of Mitsubishi Gas Chem. Co., Inc.). The thus-wrapped holders were allowed to stand at 40° C. for four months. Thereafter, the content of each vitamin in each holder was measured through HPLC. The content of each vitamin is represented by a percentage (%) of the initially incorporated amount.
# [2] = Vitamin contents in transfusion fluid containers of Examples 4 and 5 after autoclaving and 40° C. four-month storage, bioassay (vitamin B12, biotin) or HPLC (other vitamins)
# Experimental: In a holder produced from a three-layered film (the thickness of each layer: 10 μm) in which the outer and the inner layers are made of polyethylene and the intermediate layer is made of ethylene.tetracyclododecene copolymer (trade name: Apel, product of Mitsui Chemicals, Inc.), solution (C) (4 ml) was charged and the inlet was melt-sealed. In a two-compartment container, the prepared holder was attached to one of the compartments. […] The above-described transfusion fluid containers in Examples 4 and 5 were allowed to stand at 40° C. for four months after autoclaving. Thereafter, the contents of vitamins in the containers were measured through a bioassay according to Pharmacopoeia of Japan (for vitamin B12 and biotin) or through HPLC (for other vitamins). The content of each vitamin is represented by a percentage (%) of the initially incorporated amount.
# [3] = Vitamin content of transfusion products of Examples 1 and 2 after four-month storage
# Experimental: In a holder produced from a polyethylene film having a thickness of 30 μm, solution (C) (4 ml) was charged and the inlet was melt-sealed, to thereby obtain a holder for the solution containing vitamin D3. The surface area of a solution-holding portion of the holder was 16 cm^2 and the volume of polyethylene constituting the solution-holding portion was 0.048 cm^3.
# In a polyethylene-made two-compartment container (see FIG. 2), the above-described holder for vitamin D3 solution had been previously attached to one of the compartments. Solution (A) (600 ml) and solution (B) (300 ml) were charged into two compartments separately in an atmosphere replaced with nitrogen, and the container was sealed. Subsequently, the container was subjected to autoclaving through a customary method, to thereby obtain a transfusion product. The transfusion product was wrapped in a light-shielding nylon multi-layer bag together with a deoxidizing agent (trade name: Ageless, product of Mitsubishi Gas Chem. Co., Inc.).
# In the same manner as in Example 1, solution (A), solution (B), and solution (C), having the compositions shown in Table 2, were prepared, and these solutions were charged into a holder and two compartments of a transfusion fluid container as described in Example 1. Subsequently, the container was subjected to autoclaving, to thereby obtain a transfusion product. […]
smiles,measurement,setting,value
"C=C1CC[C@H](O)C/C1=C/C=C1\CCC[C@]2(C)[C@@H]([C@H](C)CCCC(C)C)CC[C@@H]12 [Vitamin D3, cholecalciferol]",Vitamin content (%) of initially incorporated amount,"[1]; holder No. 1, polyethylene, 30 μm, resin 7.4 cm^3 per μmol vitamin D, 40° C., 4 months",86.2%
same,Vitamin content (%) of initially incorporated amount,"[1]; holder No. 1, polyethylene, 30 μm, resin 7.4 cm^3 per μmol vitamin D, after sterilization",95.4%
same,Vitamin content (%) of initially incorporated amount,"[1]; holder No. 2, polyethylene, 100 μm, resin 18.5 cm^3 per μmol vitamin D, 40° C., 4 months",81.3%
same,Vitamin content (%) of initially incorporated amount,"[1]; holder No. 2, polyethylene, 100 μm, resin 18.5 cm^3 per μmol vitamin D, after sterilization",94.6%
same,Vitamin content (%) of initially incorporated amount,"[1]; holder No. 3, polypropylene, 30 μm, resin 7.4 cm^3 per μmol vitamin D, 40° C., 4 months",85.8%
same,Vitamin content (%) of initially incorporated amount,"[1]; holder No. 3, polypropylene, 30 μm, resin 7.4 cm^3 per μmol vitamin D, after sterilization",96.2%
same,Vitamin content (%) of initially incorporated amount,"[1]; holder No. 4, polyethylene, 250 μm, resin 123.2 cm^3 per μmol vitamin D, 40° C., 4 months",66.3%
same,Vitamin content (%) of initially incorporated amount,"[1]; holder No. 4, polyethylene, 250 μm, resin 123.2 cm^3 per μmol vitamin D, 40° C., 4 months, listed as vitamin D3",fell outside the acceptable range
same,Vitamin content (%) of initially incorporated amount,"[1]; holder No. 4, polyethylene, 250 μm, resin 123.2 cm^3 per μmol vitamin D, after sterilization",89.8%
same,Vitamin content (%) of initially incorporated amount,"[1]; holder No. 5, polypropylene, 250 μm, resin 123.2 cm^3 per μmol vitamin D, 40° C., 4 months",69.1%
same,Vitamin content (%) of initially incorporated amount,"[1]; holder No. 5, polypropylene, 250 μm, resin 123.2 cm^3 per μmol vitamin D, 40° C., 4 months, listed as vitamin D3",fell outside the acceptable range
same,Vitamin content (%) of initially incorporated amount,"[1]; holder No. 5, polypropylene, 250 μm, resin 123.2 cm^3 per μmol vitamin D, after sterilization",87.5%
same,"Vitamin content, percentage (%) of the initially incorporated amount","[2]; Example 4 transfusion fluid container, 40° C., 4 months",88.7%
same,"Vitamin content, percentage (%) of the initially incorporated amount","[2]; Example 4 transfusion fluid container, immediately after sterilization",89.8%
same,"Vitamin content, percentage (%) of the initially incorporated amount","[2]; Example 5 transfusion fluid container, 40° C., 4 months",89.6%
same,"Vitamin content, percentage (%) of the initially incorporated amount","[2]; Example 5 transfusion fluid container, immediately after sterilization",90.1%
same,Vitamin content after storage (acceptable range ≧80%),[3],≥ 80%

# Reference: US6572603B1, “Vitamin d solution holder and containers for transfusions” (Otsuka Pharmaceutical Factory, Inc., priority 1998, dated 2003)
